# Laboratory results as given in patent US9776991B2, “Thienomethylpiperazine derivatives as inhibitors of soluble epoxide hydrolase” (SANOFI, priority 2013, dated 2017).
# Where a name gives a salt, the structure may show the parent alone.
# Biological target: recombinant sEH (soluble epoxide hydrolase, EPHX2) (Homo sapiens (Human), UniProt P34913)
# Test: biochemical fluorometric sEH inhibition assay with Phome substrate
# Settings: recombinant sEH purified from Sf9 insect cells, 2 nM sEH, 5 μM Phome, 60 minutes at 30° C.
# Procedure: Compounds were tested in a biochemical screening assay using recombinant sEH purified from Sf9 insect cells and an artificial substrate, (3-phenyl-oxiranyl)-acetic acid cyano-(6-methoxy-naphtalen-2-yl)-methyl ester, Phome. The biochemical assay was performed in analogy to a fluorometric described in the literature (P. D. Jones et al., Anal. Biochem. 2005, 343, 66-75). The assay principle bases on the sEH-catalyzed hydrolysis of an artificial α-cyano-ester substrate. O-deacetylation liberates a cyanohydrin intermediate that rapidly decomposes to the highly fluorescent 6-methoxy-2-naphtaldehyde. To discriminate sample autofluorescence, the assay was carried out as a kinetic measurement with two time points. The first measurement is performed immediately before addition of the substrate and the […] measurement is done after completion of the assay. The assay format is either in 96- or in 384-well format.
# Details of the assay using a 96-well plate format are described below. 40 μl recombinant sEH enzyme and 5 μl test compound are pre-incubated for 15 minutes at 30° C. Following pre-incubation, the reaction is started by addition of 5 μl Phome. The assay mixture containing 2 nM final sEH concentration, test compound ranging in a concentration from 0.0001-10 μM and 5 μM Phome is incubated for 60 minutes at 30° C.
# Fluorescence is measured with any suitable detector for instance a TECAN Safire or Tecan Ultra at […]. % inhibition of recombinant sEH activity is used for calculation of corresponding IC50 values as illustrated and described in the examples.
# The NCBI gene bank reference sequence with the accession number NM_001979 for EPHX2/sEH was applied for recombinant protein production:
# The following commercially available materials have been used: • Incubation reagent: 25 mM Hepes (Sigma-Aldrich, Cat. No H-3375), 0.01% bovine albumin (Sigma-Aldrich Cat. No PA9205) • Substrate: 3-Phenyl-oxiranyl)-acetic acid cyano-(6-methoxy-naphtalen-2-yl)-methyl ester, Phome (Biozol Cat. No 10003134) • Microtiter plates: 96-well plates (Greiner Cat. No 655180; Costar Cat. No 3915)
# Chain of recombinant sEH (soluble epoxide hydrolase, EPHX2) (P34913 whole entry): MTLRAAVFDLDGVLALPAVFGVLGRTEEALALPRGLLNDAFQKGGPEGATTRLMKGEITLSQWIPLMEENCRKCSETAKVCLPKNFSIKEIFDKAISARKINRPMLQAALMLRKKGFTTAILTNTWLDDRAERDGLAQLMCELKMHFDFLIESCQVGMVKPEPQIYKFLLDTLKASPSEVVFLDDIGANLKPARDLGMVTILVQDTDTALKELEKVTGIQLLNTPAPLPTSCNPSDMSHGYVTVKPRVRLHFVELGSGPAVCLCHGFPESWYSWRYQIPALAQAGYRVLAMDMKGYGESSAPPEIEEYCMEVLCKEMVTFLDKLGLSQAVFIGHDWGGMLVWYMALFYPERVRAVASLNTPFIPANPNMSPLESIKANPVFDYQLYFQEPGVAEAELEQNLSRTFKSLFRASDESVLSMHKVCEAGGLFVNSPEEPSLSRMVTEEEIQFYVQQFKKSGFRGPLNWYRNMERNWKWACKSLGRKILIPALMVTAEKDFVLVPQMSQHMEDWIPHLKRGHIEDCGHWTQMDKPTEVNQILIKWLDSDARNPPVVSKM
row,IC50 [nM],Compound
1,1.25,O=C(NCc1ccccc1C(F)(F)F)c1ccc(CN2CCN(C(=O)c3ccc(F)cc3Cl)CC2)s1 [Example 64]
2,1.19,O=C(NCc1ccc(Cl)cc1Cl)c1ccc(CN2CCN(C(=O)c3nccc4ccccc34)CC2)s1 [Example 65]
3,1.25,O=C(NCc1ccccc1OC(F)(F)F)c1ccc(CN2CCN(C(=O)c3ccc[nH]c3=O)CC2)s1 [Example 66]
4,1.21,COc1ccc(OC)c(C(=O)N2CCN(Cc3ccc(C(=O)NCc4ccccc4OC(F)(F)F)s3)CC2)n1 [Example 67]
5,1.19,COCC1(C(=O)N2CCN(Cc3ccc(C(=O)NCc4ccccc4OC(F)(F)F)s3)CC2)CC1 [Example 68]
6,2.62,O=C(NCc1ccc(Cl)cc1Cl)c1ccc(CN2CCN(C(=O)C3Cc4ccccc43)CC2)s1 (stereo not drawn) [Example 70]
7,2.59,Cc1cccc(C(=O)N2CCN(Cc3ccc(C(=O)NCc4ccccc4OC(F)(F)F)s3)CC2)n1 [Example 72]
8,2.59,O=C(NCc1ccccc1OC(F)(F)F)c1ccc(CN2CCN(c3cnccn3)CC2)s1 [Example 73]
9,2.66,CNC(=O)c1cccnc1N1CCN(Cc2ccc(C(=O)NCc3ccc(OC)cc3OC(F)(F)F)s2)CC1 [Example 74]
10,2.55,O=C(NCc1ccccc1C(F)(F)F)c1ccc(CN2CCN(C(=O)C3(c4ccccc4)CC3)CC2)s1 [Example 75]
11,2.53,O=C(NCc1ccccc1C(F)(F)F)c1ccc(CN2CCN(C(=O)[C@@H]3C[C@H]3c3ccccc3)CC2)s1 [Example 76]
12,2.49,O=C(NCc1ccc(Cl)cc1Cl)c1ccc(CN2CCN(C(=O)c3ccccn3)CC2)s1 [Example 77]
13,2.54,CCCn1nccc1CNC(=O)c1ccc(CN2CCN(C(=O)c3c(C)cc(=O)oc3C)CC2)s1 [Example 78]
14,2.54,Cc1ccc(O)c(C(=O)N2CCN(Cc3ccc(C(=O)NCc4ccccc4OC(F)(F)F)s3)CC2)n1 [Example 79]
15,2.53,Cc1cc(=O)oc(C)c1C(=O)N1CCN(Cc2ccc(C(=O)NCc3ccc(C#N)cc3Cl)s2)CC1 [Example 80]
16,2.36,O=C(NCc1ccccc1C(F)(F)F)c1ccc(CN2CCN(C(=O)c3c(Cl)cccc3Cl)CC2)s1 [Example 81]
17,2.37,O=C(NCc1ccccc1OC(F)(F)F)c1ccc(CN2CCN(C(=O)c3ncccc3O)CC2)s1 [Example 82]
18,2.37,COCCOCC(=O)N1CCN(Cc2ccc(C(=O)NCc3ccccc3OC(F)(F)F)s2)CC1 [Example 83]
19,2.35,O=C(NCc1ccc(Cl)cc1Cl)c1ccc(CN2CCN(C3CCCC3)C(=O)C2)s1 [Example 84]
20,2.44,O=C(NCc1ccccc1OC(F)(F)F)c1ccc(CN2CCN(C3CCS(=O)(=O)C3)CC2)s1 (stereo not drawn) [Example 85]
21,2.38,CC1(C)CC[C@@H](C(=O)N2CCN(Cc3ccc(C(=O)NCc4ccccc4OC(F)(F)F)s3)CC2)N1 [Example 86]

row,IC50 [nM],Compound
1,2.41,O=C(NCc1ccccc1OC(F)(F)F)c1ccc(CN2CCN(c3ccc(CO)cn3)CC2)s1 [Example 87]
2,1.44,Cc1noc(C)c1C(=O)N1CCN(Cc2ccc(C(=O)NCc3ccccc3C(F)(F)F)s2)CC1 [Example 88]
3,1.4,O=C(NCc1ccc(Cl)cc1Cl)c1ccc(CN2CCN(C(=O)c3cccnc3)CC2)s1 [Example 89]
4,1.43,CCc1oncc1C(=O)N1CCN(Cc2ccc(C(=O)NCc3ccc(Cl)cc3Cl)s2)CC1 [Example 90]
5,1.42,Cc1cc(=O)oc(C)c1C(=O)N1CCN(Cc2ccc(C(=O)NCc3cccc(Cl)c3Cl)s2)CC1 [Example 91]
6,1.39,CC(O)CC(=O)N1CCN(Cc2ccc(C(=O)NCc3ccccc3OC(F)(F)F)s2)CC1 (stereo not drawn) [Example 92]
7,1.31,CO[C@H](C)C(=O)N1CCN(Cc2ccc(C(=O)NCc3ccccc3OC(F)(F)F)s2)CC1 [Example 93]
8,1.5,O=C(NCc1ccccc1OC(F)(F)F)c1ccc(CN2CCN(C(=O)[C@@H]3CCC[C@@H]3O)CC2)s1 [Example 94]
9,1.51,CCC(C)(O)C(=O)N1CCN(Cc2ccc(C(=O)NCc3ccccc3OC(F)(F)F)s2)CC1 (stereo not drawn) [Example 95]
10,1.57,CC[C@@H](O)C(=O)N1CCN(Cc2ccc(C(=O)NCc3ccccc3OC(F)(F)F)s2)CC1 [Example 96]
11,1.6,COc1cccnc1C(=O)N1CCN(Cc2ccc(C(=O)NCc3ccccc3OC(F)(F)F)s2)CC1 [Example 97]
12,1.52,CC(C(=O)N1CCN(Cc2ccc(C(=O)NCc3ccccc3C(F)(F)F)s2)CC1)c1ccccc1 (stereo not drawn) [Example 98]
13,1.53,CCn1nc(C)c(Br)c1C(=O)N1CCN(Cc2ccc(C(=O)NCCC(C)C)s2)CC1 [Example 99]
14,2.28,CC(C)[C@@H](O)C(=O)N1CCN(Cc2ccc(C(=O)NCc3ccccc3OC(F)(F)F)s2)CC1 [Example 101]
15,2.33,O=C1CCC(C(=O)N2CCN(Cc3ccc(C(=O)NCc4ccccc4OC(F)(F)F)s3)CC2)N1 (stereo not drawn) [Example 102]
16,2.32,CC1(C)SCN[C@H]1C(=O)N1CCN(Cc2ccc(C(=O)NCc3ccc(Cl)cc3Cl)s2)CC1 [Example 103]
17,2.33,COc1ccc(CNC(=O)c2ccc(CN3CCn4cnnc4C3)s2)c(OC(F)(F)F)c1 [Example 104]
18,2.33,Cc1cccnc1N1CCN(Cc2ccc(C(=O)NCc3ccc(Cl)cc3Cl)s2)CC1=O [Example 105]
19,2.18,O=C(NCc1ccccc1OC(F)(F)F)c1ccc(CN2CCN(C(=O)CCO)CC2)s1 [Example 106]
20,2.26,O=C(NCc1ccccc1OC(F)(F)F)c1ccc(CN2CCN(C(=O)c3c[nH]cnc3=O)CC2)s1 [Example 107]
21,2.15,Cn1ncc(N2CCN(Cc3ccc(C(=O)NCc4ccc(Cl)cc4Cl)s3)CC2)cc1=O [Example 108]

row,IC50 [nM],Compound
1,2.16,NC1(C(=O)N2CCN(Cc3ccc(C(=O)NCc4ccc(Cl)cc4Cl)s3)CC2)CC1 [Example 109]
2,2.16,CC1(C)SCN[C@H]1C(=O)N1CCN(Cc2ccc(C(=O)NCc3ccccc3OC(F)(F)F)s2)CC1 [Example 110]
3,2.23,O=C(NCc1ccccc1OC(F)(F)F)c1ccc(CN2CCN(CC(F)(F)F)C(=O)C2)s1 [Example 111]
4,1.64,Cc1cccnc1N1CCN(Cc2ccc(C(=O)NCc3ccccc3OC(F)(F)F)s2)CC1=O [Example 112]
5,1.67,COc1ccc(CNC(=O)c2ccc(CN3CCN(c4nccn4C)CC3)s2)c(OC(F)(F)F)c1 [Example 113]
6,1.67,O=C(NCc1ccc(Cl)cc1Cl)c1ccc(CN2CCN3C(=O)CCC3C2)s1 (stereo not drawn) [Example 114]
7,1.64,"NC1(C(=O)N2CCN(Cc3ccc(C(=O)NCc4ccccc4OC(F)(F)F)s3)CC2)CC1 [Example 115, 5-[4-(1-Amino-cyclopropanecarbonyl)-piperazin-1-ylmethyl]-thiophene-2-carboxylic acid 2-trifluoromethoxy-benzylamide, trifluoroacetate]"
8,1.6,COCCC(=O)N1CCN(Cc2ccc(C(=O)NCc3ccccc3OC(F)(F)F)s2)CC1 [Example 116]
9,1.64,CCc1oncc1C(=O)N1CCN(Cc2ccc(C(=O)NCc3ccccc3C(F)(F)F)s2)CC1 [Example 117]
10,1.72,CCOc1ccccc1C(=O)N1CCN(Cc2ccc(C(=O)NCCC(C)C)s2)CC1 [Example 118]
11,1.68,O=C(NCc1ccccc1C(F)(F)F)c1ccc(CN2CCN(C(=O)c3ccccc3F)CC2)s1 [Example 119]
12,5.3,"Cc1cc(N2CCN(Cc3ccc(C(=O)NCc4ccc(Cl)cc4Cl)s3)CC2)cc(C)n1 [Example 120, 5-[4-(2,6-Dimethyl-pyridin-4-yl)-piperazin-1-ylmethyl]-thiophene-2-carboxylic acid 2,4-dichloro-benzylamide]"
13,1.68,O=C(NCc1ccccc1OC(F)(F)F)c1ccc(CN2CCN(C(=O)c3ccccn3)CC2)s1 [Example 121]
14,1.74,Cc1noc(C)c1C(=O)N1CCN(Cc2ccc(C(=O)NCc3ccccc3OC(F)(F)F)s2)CC1 [Example 122]
15,1.69,CC(C)(O)C(=O)N1CCN(Cc2ccc(C(=O)NCc3ccccc3OC(F)(F)F)s2)CC1 [Example 123]
16,1.69,COc1ccc(CNC(=O)c2ccc(CN3CCN(c4ccccn4)CC3)s2)c(OC(F)(F)F)c1 [Example 124]
17,1.68,O=C(NCc1ccccc1OC(F)(F)F)c1ccc(CN2CCN(CCO)CC2)s1 [Example 125]
18,1.75,COc1ccc(CNC(=O)c2ccc(CN3CCN(c4ncccc4C)C(=O)C3)s2)c(OC(F)(F)F)c1 [Example 126]
19,1.73,COc1ccc(CNC(=O)c2ccc(CN3CCN(c4cc(C)ccn4)CC3)s2)c(OC(F)(F)F)c1 [Example 127]

row,Compound,IC50 [nM]
1,O=C(NCc1ccc(Cl)cc1Cl)c1ccc(CN2CCN(C(=O)Cc3ccccc3Cl)CC2)s1 [Example 69],2.61
2,O=C(NCc1ccc(Cl)cc1Cl)c1ccc(CN2CCN(C(=O)Cc3cccc(C(F)(F)F)c3)CC2)s1 [Example 100],2.3
